According to patent US12564568B2, “PKC pathway in Parkinson's Disease” (CEDARS-SINAI MEDICAL CENTER, priority 2018, dated 2026):
Entries after “also recorded” stand apart in the source; their conditions may differ.

Tests used:
PKC C1 domains = conditions: cited from earlier work
TH = TH gene expression over PEP005 time-course (qPCR); assay type: cell-based, human; conditions: roughly 8 hours after initial exposure
Method: (§1) qPCR: Total cellular RNA was isolated using TRIzol Reagent followed by Qiagen RNeasy Mini kit with DNase treatment. Total RNA (1 μg) was used for cDNA synthesis using the Quantitate Reverse Transcription Kit for cDNA synthesis for PCR (Qiagen). Real-time PCR was performed using the SYBR Green Supermix (BIO-RAD). The levels of expression of respective genes were normalized to corresponding GAPDH values and shown as fold change relative to the value of the control sample (ΔΔCt method)

cleaved caspase 3 (CC3) = test: Cleaved caspase 3 in mDA cultures over PEP005 time-course (western blot); assay type: cell-based, human; conditions: PD/EOSPD cultures, PEP005 treatment
Method: Western blot: Cells were gently scraped off the plates, washed with PBS, centrifuged at 15000 RPM for 1 min, and dry pellets were frozen at −80° C. Samples were then thawed and lysed using 1×NETN buffer (20 mM Tris-HCl (pH 8.0), 100 mM NaCl, 0.5 mM EDTA and 0.5% NP-40) supplemented with phosphatase/protease inhibitor cocktail (MS-SAFE, Sigma-Aldrich). Lysates were sonicated in an automated cold bath sonicator for 20 mins using alternating 10 sec pulses followed by 10 sec rests. Samples were centrifuged for 20 min at 4° C. at 15000 RPM. Total soluble protein concentrations were measured using a Bradford assay (BIO-RAD). 4× Laemmli sample buffer (BIO-RAD 161-0774) was added to either 100 μg or 50 μg of total protein extracts and samples were boiled for 5 min. […] Membranes were blocked with Odyssey blocking buffer (LI-COR) and then incubated with primary antibodies for overnight at 4° C. or room temperature for 3 hours. Following incubation with dye-labeled secondary antibodies for 2 hours at room temperature, signals were visualized using an Odyssey Fc imaging system (LI-COR). […] Combined α-synuclein and p-PKCα expression plots were calculated by first normalizing bands to β-actin, then to the 02iCTR signal present in each blot. […] ROC plot and area under the curve was determined using R package ROCR to determine predicative probability percentages.

SNCA = SNCA gene expression over PEP005 time-course (qPCR); assay type: cell-based, human; conditions: 4 hours after PEP005 treatment
Method: as §1

α-synuclein = test: Unilateral striatal injection in wild-type C57BL/6 mice, α-synuclein in striatum (western blot, IHC); conditions: 215 ng dose, 3 days post-treatment
[1] = IV bolus dose study, cardiovascular effects in mini-pig; assay type: in vivo; conditions: doses up to 5 ug/kg (highest tested)
Text: In multiple IV bolus dose studies, the following was observed.

**Q.** With `C/C=C(/C)C(=O)O[C@H]1C(C)=C[C@]23C(=O)[C@@H](C=C(CO)[C@@H](O)[C@]12O)[C@H]1[C@@H](C[C@H]3C)C1(C)C` [PEP005, ingenol-3-angelate] as the compound, how does the “affinity for PKC C1 domains” value (PKC C1 domains) read?
**A.** subnanomolar

**Q.** What about the “TH expression (qPCR)” value (TH) of the same compound?
**A.** upregulated

**Q.** What about the “cleaved (active) caspase 3 (CC3)” value (cleaved caspase 3 (CC3)) of the same compound?
**A.** marked decrease

**Q.** What about the “cleaved (active) caspase 3 (CC3)” value (cleaved caspase 3 (CC3); listed as PEP) of the same compound?
**A.** marked decrease

**Q.** What about the “SNCA expression (qPCR)” value (SNCA) of the same compound?
**A.** downregulated

**Q.** What about the “α-synuclein levels in striatum, injected (L) relative to contralateral side (R)” value (α-synuclein) of the same compound?
**A.** significantly reduced; also recorded: reduces

**Q.** And the cardiovascular changes [1]?
**A.** no notable cardiovascular changes

**Q.** And the “clinical or behavioral effects” value [1]?
**A.** no adverse clinical or behavioral effects
